Experimental data as given in patent publication US10961492B2, “Microfluidic devices and related methods for generation and/or culture and/or maturation of three-dimensional cells and/or tissue constructs” (POLITECNICO DI MILANO, priority 2015, dated 2021).

System: mature cardiac construct
Test: drug screening on mature cardiac construct in the microfluidic device (spontaneous contraction frequency)
Format: cell-based, neonatal rats
Settings: increasing concentrations 1 and 2 μg/ml in culture medium injected in sequence; evaluated 60 seconds after injection; 37° C.; with respect to control construct without drug
Procedure: The cells of interest were isolated using the following process. The cardiac tissue removed from the ventricles of neonatal rats was digested in trypsin (0.6 mg/ml, in a Hank balanced saline solution, HBSS) for 18 hours. The digestion was then blocked by adding 10 ml of culture medium (Dulbecco Modified Eagle's Medium, DMEM) containing: 10% of fetal bovine serum, 1% of penicillin-streptomycin, 1% of HEPES and 1% of L-Glutamine. The isolation of the cells from the matrix was then obtained with five passages in a solution of collagenase (1 mg/ml in HBSS) at 37° C. for 5 minutes. The cell suspension thus obtained was centrifuged at 700 rpm for 10 minutes, re-suspended in 25 ml of culture medium and seeded in a culture flask to isolate the fraction of cardiomyocytes (non-adherent).
For seeding inside the device, the cardiac cells thus isolated were diluted in a solution of fibrin gel at a cell concentration of 1×10^5 cells/μl. More specifically, for the seeding of 6 devices, 20 μl of fibrin gel were prepared by mixing 20×10^5 cells (estimated volume of 8.2 μl), 4 μl of calcium chloride, 4 μl of fibrinogen (20 mg/ml in sodium chloride), 2.8 μl of aprotinin (16 TIU/ml in distilled water) and 1 μl of thrombin (5 U/ml in calcium chloride). […]

Q: For `CCN(CC)CC(=O)Nc1c(C)cccc1C` [lidocaine], which spontaneous contraction frequency is on record?
A: Its spontaneous contraction frequency is “decrease in the contraction frequency”.
